Data set [1] has as its system recombinant NL4-3 virus (Renilla luciferase) in MT-2 cells. Kind of data set: HIV cell culture assay (antiviral, luciferase readout in infected MT-2 cells). Format: cell-based. The settings on record: NL43. How it is done: HIV cell culture assay—MT-2 cells, 293T cells and the proviral DNA clone of NL4-3 virus were obtained from the NIH AIDS Research and Reference Reagent Program. MT-2 cells were propagated in RPMI 1640 media supplemented with 10% heat inactivated fetal bovine serum (FBS), […]. The 293T cells were propagated in DMEM media supplemented with 10% heat inactivated FBS, […]. A recombinant NL4-3 proviral clone, in which a section of the nef gene was replaced with the Renilla luciferase gene, was used to make the reference virus used in these studies. The recombinant virus was prepared through transfection of the recombinant NL4-3 proviral clone into 293T cells using Transit-293 Transfection Reagent from Mirus Bio LLC (Madison, Wis.). Supernatent was harvested after 2-3 days and the amount of virus present was titered in MT-2 cells using luciferase enzyme activity as a marker by measuring luciferase enzyme activity. Luciferase was quantitated using the EnduRen Live Cell Substrate from Promega (Madison, Wis.). Antiviral activities of compounds toward the recombinant virus were quantified by measuring luciferase activity in MT-2 cells infected for 4-5 days with the recombinant virus in the presence of serial dilutions of the compound.
The 50% effective concentration (EC50) was calculated by using the exponential form of the median effect equation where (Fa)=1/[1+(ED50/drug conc.)m] (Johnson V A, Byington R T. Infectivity Assay. In Techniques in HIV Research. ed. Aldovini A, Walker B D. 71-76. New York: Stockton Press. 1990). The 50% inhibitory concentration (EC50) was calculated by using the exponential form of the median effect equation where percent inhibition=1/[1+(EC50/drug concentration)m], where m is a parameter that reflects the slope of the concentration-response curve.

Data set [2] is described as follows: Compound cytotoxicity, XTT-based colorimetric assay in uninfected MT2 cells. The settings on record: human, day 4, XTT assay. It is filed as cell-based. How it is done: Compound cytotoxicity and the corresponding CC50 values were determined using the same protocol as described in the antiviral assay except that uninfected cells were used. Cytotoxicity was assessed on day 4 in uninfected MT2 cells by using an XTT (2,3-bis[2-Methoxy-4-nitro-5-sulfophenyl]-2H-tetrazolium-5-carboxyanilide inner salt)-based colorimetric assay (Sigma-Aldrich, St Louis, Mo.).
A general note: Formazan colour is commonly taken as a measure of viable cells.

Among the data in patent US20230106880A1, “INHIBITORS OF HUMAN IMMUNODEFICIENCY VIRUS REPLICATION” (VIIV HEALTHCARE UK (NO.5) LIMITED, priority 2020, published 2023) are EC50 and CC50 values, retold here.

Consider `Cn1nc(NS(C)(=O)=O)c2c(Cl)ccc(-n3c([C@H](Cc4cc(F)cc(F)c4)NC(=O)Cn4nc(C5CC5)c5c4C(F)(F)[C@@H]4C[C@H]54)nc4nc(OCCC(C)(F)F)ccc4c3=O)c21` (atropisomer, axis not shown; (P)) [Example 1, N—((S)-1-((3P)-3-(4-chloro-1-methyl-3-(methylsulfonamido)-1H-indazol-7-yl)-7-(3,3-difluorobutoxy)-4-oxo-3,4-dihydropyrido[2,3-d]pyrimidin-2-yl)-2-(3,5-difluorophenyl)ethyl)-2-((3bS,4aR)-3-cyclopropyl-5,5-difluoro-3b,4,4a,5-tetrahydro-1H-cyclopropa[3,4]cyclopenta[1,2-c]pyrazol-1-yl)acetamide], for which the EC50 (as a rule, the concentration needed to bring the measured effect to its halfway point) in data set [1] stood at 0.027 nM. The CC50 (commonly the concentration at which the toxic effect on the cells reaches its halfway point) at 4 day in data set [2] is above 100 nM.
Taken in the same sequence, the figures for `Cn1nc(NS(C)(=O)=O)c2c(Cl)ccc(-n3c([C@H](Cc4cc(F)cc(F)c4)NC(=O)Cn4nc(C5CC5)c5c4C(F)(F)[C@H]4C[C@@H]54)nc4nc(OCCC(C)(F)F)ccc4c3=O)c21` (atropisomer, axis not shown; (P)) [Example 2, N—((S)-1-((3P)-3-(4-chloro-1-methyl-3-(methylsulfonamido)-1H-indazol-7-yl)-7-(3,3-difluorobutoxy)-4-oxo-3,4-dihydropyrido[2,3-d]pyrimidin-2-yl)-2-(3,5-difluorophenyl)ethyl)-2-((3bR,4aS)-3-cyclopropyl-5,5-difluoro-3b,4,4a,5-tetrahydro-1H-cyclopropa[3,4]cyclopenta[1,2-c]pyrazol-1-yl)acetamide] were 0.05 nM and above 100 nM.
On to `Cn1nc(NS(C)(=O)=O)c2c(Cl)ccc(-n3c([C@H](Cc4cc(F)cc(F)c4)NC(=O)Cn4nc(C5CC5)c5c4C(F)(F)[C@@H]4C[C@H]54)nc4nc(OCCC(F)(F)F)ccc4c3=O)c21` (atropisomer, axis not shown; (P)) [Example 3, N—((S)-1-((3P)-3-(4-chloro-1-methyl-3-(methylsulfonamido)-1H-indazol-7-yl)-4-oxo-7-(3,3,3-trifluoropropoxy)-3,4-dihydropyrido[2,3-d]pyrimidin-2-yl)-2-(3,5-difluorophenyl)ethyl)-2-((3bS,4aR)-3-cyclopropyl-5,5-difluoro-3b,4,4a,5-tetrahydro-1H-cyclopropa[3,4]cyclopenta[1,2-c]pyrazol-1-yl)acetamide], for which, in data set [1], the EC50 is 0.014 nM. This compound came in with a 50% cytotoxic concentration (CC50) at 4 day in data set [2] above 100 nM.
Taken in the same sequence, the figures for `Cn1nc(NS(C)(=O)=O)c2c(Cl)ccc(-n3c([C@H](Cc4cc(F)cc(F)c4)NC(=O)Cn4nc(C5CC5)c5c4C(F)(F)[C@H]4C[C@@H]54)nc4nc(OCCC(F)(F)F)ccc4c3=O)c21` (atropisomer, axis not shown; (P)) [Example 4, N—((S)-1-((3P)-3-(4-chloro-1-methyl-3-(methylsulfonamido)-1H-indazol-7-yl)-4-oxo-7-(3,3,3-trifluoropropoxy)-3,4-dihydropyrido[2,3-d]pyrimidin-2-yl)-2-(3,5-difluorophenyl)ethyl)-2-((3bR,4aS)-3-cyclopropyl-5,5-difluoro-3b,4,4a,5-tetrahydro-1H-cyclopropa[3,4]cyclopenta[1,2-c]pyrazol-1-yl)acetamide] were 0.079 nM and above 100 nM.
